# According to US20240217983A1, “GPR119 AGONISTS” (Kallyope, Inc., priority 2021, published 2024):
# Structures can show the parent of a compound that is named as a salt.
# Biological target: T1, human GPR119 (hGPR119) (Homo sapiens, UniProt Q8TDV5)
# T1 construct: expressed in transfected cells
# T1 sequence (Q8TDV5 1-335): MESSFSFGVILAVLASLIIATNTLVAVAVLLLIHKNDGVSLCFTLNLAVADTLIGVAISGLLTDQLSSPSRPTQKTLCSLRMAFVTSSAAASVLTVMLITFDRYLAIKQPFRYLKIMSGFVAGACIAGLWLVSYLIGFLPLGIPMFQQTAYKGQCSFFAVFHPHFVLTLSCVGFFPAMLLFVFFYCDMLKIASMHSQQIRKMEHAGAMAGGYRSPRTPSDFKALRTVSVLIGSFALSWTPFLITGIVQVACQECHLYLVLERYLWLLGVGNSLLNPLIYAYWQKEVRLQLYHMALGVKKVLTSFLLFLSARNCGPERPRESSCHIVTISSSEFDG
# Experiment: cAMP accumulation assay (Cisbio cAMP Gs dynamic HTRF kit) in CHO-K1 cells stably expressing human GPR119
# Assay type: cell-based
# Conditions: 4-parameter fit; for Emax: 1 h, % activity normalized to Max and Min controls; for EC50: 60 minutes at 37° C.
# In short: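 CHO-K1 cells stably expressing hGPR119, used as assay-ready frozen stocks at ~10,000 cells/well, exposed to compound dose-response in stimulation buffer with Tween 80 for 60 min at 37° C. cAMP read by HTRF (665/620 nm ratio), normalised to Max/Min controls; EC50 and Max activity from 4-parameter fit.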
SMILES,Emax,EC50
"O=C(Cc1ccc(OCCCC2CCN(c3ncc(Cl)cn3)CC2)cn1)N1CCN(C[C@H](O)[C@@H](O)[C@H](O)[C@H](O)CO)CC1 [Example 88, 2-(5-(3-(1-(5-chloropyrimidin-2-yl)piperidin-4-yl)propoxy)pyridin-2-yl)-1-(4-((2S,3R,4R,5R)-2,3,4,5,6-pentahydroxyhexyl)piperazin-1-yl)ethan-1-one]",100 to 130%,> 10 µM
"O=C(Cc1c(F)cc(OCCCC2CCN(C(=O)OC3(C(F)(F)F)COC3)CC2)cc1F)N1CCN(C[C@H](O)[C@@H](O)[C@H](O)[C@H](O)CO)CC1 [Example 106, 3-(trifluoromethyl)oxetan-3-yl 4-(3-(3,5-difluoro-4-(2-oxo-2-(4-((2S,3R,4R,5R)-2,3,4,5,6-pentahydroxyhexyl)piperazin-1-yl)ethyl)phenoxy)propyl)piperidine-1-carboxylate]",100 to 130%,0.1 to 1 µM
"O=C(Cc1ccc(OCCCC2CCN(c3ncc(Cl)cn3)CC2)cc1F)N1CC2(CCN2C(=O)CCCCS(=O)(=O)O)C1 [Example 5, 5-(6-(2-(4-(3-(1-(5-chloropyrimidin-2-yl)piperidin-4-yl)propoxy)-2-fluorophenyl)acetyl)-1,6-diazaspiro[3.3]heptan-1-yl)-5-oxopentane-1-sulfonic acid]",100 to 130%,≤ 0.1 µM
"O=C(Cc1ccc(OCCCC2CCN(c3ncc(Cl)cn3)CC2)cc1F)N1CC2(CCN2C[C@H](O)[C@H](O)[C@H](O)CO)C1 [Example 32, 2-(4-(3-(1-(5-chloropyrimidin-2-yl)piperidin-4-yl)propoxy)-2-fluorophenyl)-1-(1-((2S,3S,4R)-2,3,4,5-tetrahydroxypentyl)-1,6-diazaspiro[3.3]heptan-6-yl)ethan-1-one]",100 to 130%,≤ 0.1 µM
"O=C(Cc1ccc(OCCCC2CCN(c3ncc(Cl)cn3)CC2)cc1F)N1CCC2(CC1)CN(C[C@H](O)[C@H](O)[C@H](O)CO)C2 [Example 69, 2-(4-(3-(1-(5-chloropyrimidin-2-yl)piperidin-4-yl)propoxy)-2-fluorophenyl)-1-(2-((2S,3S,4R)-2,3,4,5-tetrahydroxypentyl)-2,7-diazaspiro[3.5]nonan-7-yl)ethan-1-one]",100 to 130%,0.1 to 1 µM
"O=C(Cc1ccc(OCCCC2CCN(c3ncc(Cl)cn3)CC2)cc1F)N1C2CC1CN(C[C@H](O)[C@@H](O)[C@H](O)[C@H](O)CO)C2 [Example 57, 2-(4-(3-(1-(5-chloropyrimidin-2-yl)piperidin-4-yl)propoxy)-2-fluorophenyl)-1-(3-((2S,3R,4R,5R)-2,3,4,5,6-pentahydroxyhexyl)-3,6-diazabicyclo[3.1.1]heptan-6-yl)ethan-1-one]",100 to 130%,≤ 0.1 µM
"O=C(Cc1ccc(OCCCC2CCN(c3ncc(Cl)cn3)CC2)cc1F)N1CCC2(CCN2C[C@H](O)[C@H](O)[C@H](O)CO)C1 (stereo partly drawn) [Example 30, 2-(4-(3-(1-(5-chloropyrimidin-2-yl)piperidin-4-yl)propoxy)-2-fluorophenyl)-1-(1-((2S,3S,4R)-2,3,4,5-tetrahydroxypentyl)-1,6-diazaspiro[3.4]octan-6-yl)ethan-1-one]",100 to 130%,≤ 0.1 µM
"O=C(Cc1c(F)cc(OCCCC2CCN(c3ncc(Cl)cn3)CC2)cc1F)N1CCN(C[C@H](O)[C@@H](O)[C@H](O)[C@H](O)CO)CC1 [Example 85, 2-(4-(3-(1-(5-chloropyrimidin-2-yl)piperidin-4-yl)propoxy)-2,6-difluorophenyl)-1-(4-((2S,3R,4R,5R)-2,3,4,5,6-pentahydroxyhexyl)piperazin-1-yl)ethan-1-one formate]",≥ 130%,≤ 0.1 µM
"CCc1cnc(N2CCC(CCCOc3ccc(CC(=O)N4CCN(C[C@H](O)[C@@H](O)[C@H](O)[C@H](O)CO)CC4)c(F)c3)CC2)nc1 [Example 92, 2-(4-(3-(1-(5-ethylpyrimidin-2-yl)piperidin-4-yl)propoxy)-2-fluorophenyl)-1-(4-((2S,3R,4R,5R)-2,3,4,5,6-pentahydroxyhexyl)piperazin-1-yl)ethan-1-one]",100 to 130%,≤ 0.1 µM
"O=C(Cc1ccc(OCCCC2CCN(c3ncc(Cl)cn3)CC2)cc1F)N1CCC2(CC1)CCN2C[C@H](O)[C@@H](O)[C@H](O)[C@H](O)CO [Example 68, 2-(4-(3-(1-(5-chloropyrimidin-2-yl)piperidin-4-yl)propoxy)-2-fluorophenyl)-1-(1-((2S,3R,4R,5R)-2,3,4,5,6-pentahydroxyhexyl)-1,7-diazaspiro[3.5]nonan-7-yl)ethan-1-one]",100 to 130%,≤ 0.1 µM
"CC(C)OC(=O)N1CCC(CCCOc2ccc(CC(=O)N3CCN(C[C@H](O)[C@@H](O)[C@H](O)[C@H](O)CO)CC3)c(F)c2)CC1 [Example 104, isopropyl 4-(3-(3-fluoro-4-(2-oxo-2-(4-((2S,3R,4R,5R)-2,3,4,5,6-pentahydroxyhexyl)piperazin-1-yl)ethyl)phenoxy)propyl)piperidine-1-carboxylate]",100 to 130%,0.1 to 1 µM
"O=C(Cc1ccc(OCCCC2CCN(c3ncc(Cl)cn3)CC2)cc1F)N1CC2(CCN(C[C@H](O)[C@H](O)[C@H](O)CO)C2)C1 [Example 66, 2-(4-(3-(1-(5-chloropyrimidin-2-yl)piperidin-4-yl)propoxy)-2-fluorophenyl)-1-(6-((2S,3S,4R)-2,3,4,5-tetrahydroxypentyl)-2,6-diazaspiro[3.4]octan-2-yl)ethan-1-one]",100 to 130%,≤ 0.1 µM
"O=C(Cc1ccc(OCCCC2CCN(c3ncc(Cl)cn3)CC2)cc1F)N1C[C@H]2CN(C[C@H](O)[C@@H](O)[C@H](O)[C@H](O)CO)C[C@H]2C1 [Example 45, 2-(4-(3-(1-(5-chloropyrimidin-2-yl)piperidin-4-yl)propoxy)-2-fluorophenyl)-1-((3aR,6aS)-5-((2S,3R,4R,5R)-2,3,4,5,6-pentahydroxyhexyl)hexahydropyrrolo[3,4-c]pyrrol-2(1H)-yl)ethan-1-one]",100 to 130%,≤ 0.1 µM
"O=C(Cc1ccc(OCCCCC2CCN(c3ncc(Cl)cn3)CC2)cc1F)N1CCN(C[C@H](O)[C@@H](O)[C@H](O)[C@H](O)CO)CC1 [Example 86, 2-(4-(4-(1-(5-chloropyrimidin-2-yl)piperidin-4-yl)butoxy)-2-fluorophenyl)-1-(4-((2S,3R,4R,5R)-2,3,4,5,6-pentahydroxyhexyl)piperazin-1-yl)ethan-1-one]",100 to 130%,≤ 0.1 µM
"O=C(Cc1ccc(OCCCC2CCN(c3ncc(Cl)cn3)CC2)cc1F)N1C[C@H]2CCN(C(=O)CCCCS(=O)(=O)O)[C@H]2C1 [Example 20, 5-((3aR,6aR)-5-(2-(4-(3-(1-(5-chloropyrimidin-2-yl)piperidin-4-yl)propoxy)-2-fluorophenyl)acetyl)hexahydropyrrolo[3,4-b]pyrrol-1(2H)-yl)-5-oxopentane-1-sulfonic acid]",100 to 130%,≤ 0.1 µM
"CC1(CCCCOc2ccc(CC(=O)N3CCN(C[C@H](O)[C@@H](O)[C@H](O)[C@H](O)CO)CC3)c(F)c2)CCN(c2ncc(Cl)cn2)CC1 [Example 107, 2-(4-(4-(1-(5-chloropyrimidin-2-yl)-4-methylpiperidin-4-yl)butoxy)-2-fluorophenyl)-1-(4-((2S,3R,4R,5R)-2,3,4,5,6-pentahydroxyhexyl)piperazin-1-yl)ethan-1-one]",100 to 130%,0.1 to 1 µM
"O=C(Cc1ccc(OCCCC2CCN(c3ncc(Cl)cn3)CC2)cc1F)N1CCC2(CC1)CN(C[C@H](O)[C@@H](O)[C@H](O)[C@H](O)CO)C2 [Example 70, 2-(4-(3-(1-(5-chloropyrimidin-2-yl)piperidin-4-yl)propoxy)-2-fluorophenyl)-1-(2-((2S,3R,4R,5R)-2,3,4,5,6-pentahydroxyhexyl)-2,7-diazaspiro[3.5]nonan-7-yl)ethan-1-one]",100 to 130%,0.1 to 1 µM
"O=C(Cc1ccc(OCCCC2CCN(c3ncc(Cl)cn3)CC2)cc1F)N1CCC2(CCN(C[C@H](O)[C@@H](O)[C@H](O)[C@H](O)CO)C2)C1 (stereo partly drawn) [Example 43, 2-(4-(3-(1-(5-chloropyrimidin-2-yl)piperidin-4-yl)propoxy)-2-fluorophenyl)-1-(7-((2S,3R,4R,5R)-2,3,4,5,6-pentahydroxyhexyl)-2,7-diazaspiro[4.4]nonan-2-yl)ethan-1-one]",100 to 130%,≤ 0.1 µM
"O=C(Cc1ccc(OCCCC2CCN(c3ncc(Cl)cn3)CC2)cc1F)N1C[C@H]2CCN(C[C@H](O)[C@@H](O)[C@H](O)[C@H](O)CO)[C@H]2C1 [Example 65, 2-(4-(3-(1-(5-chloropyrimidin-2-yl)piperidin-4-yl)propoxy)-2-fluorophenyl)-1-((3aR,6aR)-1-((2S,3R,4R,5R)-2,3,4,5,6-pentahydroxyhexyl)hexahydropyrrolo[3,4-b]pyrrol-5(1H)-yl)ethan-1-one]",100 to 130%,≤ 0.1 µM
"O=C(Cc1ncc(OCCCC2CCN(c3ncc(Cl)cn3)CC2)cc1F)N1CCN(C[C@H](O)[C@@H](O)[C@H](O)[C@H](O)CO)CC1 [Example 89, 2-(5-(3-(1-(5-chloropyrimidin-2-yl)piperidin-4-yl)propoxy)-3-fluoropyridin-2-yl)-1-(4-((2S,3R,4R,5R)-2,3,4,5,6-pentahydroxyhexyl)piperazin-1-yl)ethan-1-one]",100 to 130%,0.1 to 1 µM
"COCc1cnc(N2CCC(CCCCOc3ccc(CC(=O)N4CCN(C[C@H](O)[C@@H](O)[C@H](O)[C@H](O)CO)CC4)c(F)c3)CC2)nc1 [Example 100, 2-(2-fluoro-4-(4-(1-(5-(methoxymethyl)pyrimidin-2-yl)piperidin-4-yl)butoxy)phenyl)-1-(4-((2S,3R,4R,5R)-2,3,4,5,6-pentahydroxyhexyl)piperazin-1-yl)ethan-1-one]",100 to 130%,0.1 to 1 µM
